{
  "source": "the NIST ThermoML archive (doi:10.1016/j.jct.2014.12.027)",
  "conditions": "101.33 kPa, Liquid, Vibrating tube method",
  "note": "Numbers after ± are expanded uncertainties.",
  "data": [
    {"compound": "CCCC[n+]1ccc(C)cc1.N#CC(=C=[N-])C#N", "note": "[1-butyl-4-methylpyridinium tricyanomethanide]", "values": [
      {"measurement": "mass density", "setting": "293.15 K", "value": "1037.3 ± 0.9", "unit": "kg/m3"},
      {"measurement": "mass density", "setting": "303.15 K", "value": "1031.7 ± 0.9", "unit": "kg/m3"},
      {"measurement": "mass density", "setting": "313.15 K", "value": "1026.2 ± 0.9", "unit": "kg/m3"},
      {"measurement": "mass density", "setting": "323.15 K", "value": "1020.7 ± 0.9", "unit": "kg/m3"},
      {"measurement": "mass density", "setting": "333.15 K", "value": "1015.1 ± 0.9", "unit": "kg/m3"},
      {"measurement": "mass density", "setting": "343.15 K", "value": "1009.6 ± 0.9", "unit": "kg/m3"}
    ]}
  ]
}
